{
  "source": "patent US20220241311A1",
  "about": "“METHODS AND MATERIALS FOR TREATING GLYCOSYLATION DISORDERS” (priority 2018, published 2022)",
  "tested_on": "healthy controls (WT) fibroblasts",
  "assay": "Nucleotide sugar analysis (UPLC-PDA), healthy controls",
  "format": "cell-based, human",
  "experimental": "Levels of nucleotides and sugar-nucleotides were determined. Fibroblast cell pellets (5×10^6 cells per sample) were lysed and extracted in 0.37 ml ice-cold 0.5 M perchloric acid with sonication on ice. Samples were neutralized with 86 μl ice-cold neutralization solution (2.5 M KOH in 1.5 M K2HPO4) after 5 minute sonication. To remove precipitated potassium perchlorate neutralized samples were centrifuged at 4° C. and 16,400×g for 10 minutes and filtered with 0.2 μm filters. Nucleotides and sugar-nucleotides were immediately analyzed and separated via ion-pair reverse phased chromatography using an Acquity HSS T3 column (150 mm×2.1 mm, 1.7 μm, Waters) connected to an Acquity H-class UPLC system. The column temperature was set to 40° C. and the column was equilibrated with solvent A (50 mM potassium phosphate buffer, 8 mM tetrabutylammonium hydrogensulfate, pH 6.5) at a flow rate of 0.45 ml min^−1. Autosampler temperature was maintained at 6° C. […] Nucleotides were detected by Acquity PDA detector (Waters, 260 nm) and quantified using ultrapure standards (Sigma). Data acquisition and processing was performed with the Empower3 software suite (Waters).\nNucleotide sugars were measured with serum starvation during 18 hours of culturing and without of serum starvation and applying normal media.",
  "data": [
    {"smiles": "O=C[C@H](O)[C@@H](O)[C@@H](O)[C@H](O)CO", "note": "[D-gal, D-galactose]", "values": [
      {"measurement": "ADP", "setting": "WT, 1 d 2 mM Galactose", "value": 483.78, "unit": "pmol/mio cells"},
      {"measurement": "AMP", "setting": "WT, 1 d 2 mM Galactose", "value": 10.14, "unit": "pmol/mio cells"},
      {"measurement": "ATP", "setting": "WT, 1 d 2 mM Galactose", "value": 2604.27, "unit": "pmol/mio cells"},
      {"measurement": "CTP", "setting": "WT, 1 d 2 mM Galactose", "value": 291.83, "unit": "pmol/mio cells"},
      {"measurement": "GDP", "setting": "WT, 1 d 2 mM Galactose", "value": 194.35, "unit": "pmol/mio cells"},
      {"measurement": "GDP-Man", "setting": "WT, 1 d 2 mM Galactose", "value": 72.63, "unit": "pmol/mio cells"},
      {"measurement": "GTP", "setting": "WT, 1 d 2 mM Galactose", "value": 491.50, "unit": "pmol/mio cells"},
      {"measurement": "UDP", "setting": "WT, 1 d 2 mM Galactose", "value": 159.94, "unit": "pmol/mio cells"},
      {"measurement": "UDP-Gal", "setting": "WT, 1 d 2 mM Galactose", "value": 400.64, "unit": "pmol/mio cells"},
      {"measurement": "UDP-Glc", "setting": "WT, 1 d 2 mM Galactose", "value": 345.82, "unit": "pmol/mio cells"},
      {"measurement": "UTP", "setting": "WT, 1 d 2 mM Galactose", "value": 1267.16, "unit": "pmol/mio cells"},
      {"measurement": "cAMP", "setting": "WT, 1 d 2 mM Galactose", "value": 77.78, "unit": "pmol/mio cells"},
      {"measurement": "ADP", "setting": "WT, 1 d + 0.75 mM Galactose", "value": 506.33, "unit": "pmol/mio cells"},
      {"measurement": "AMP", "setting": "WT, 1 d + 0.75 mM Galactose", "value": 16.00, "unit": "pmol/mio cells"},
      {"measurement": "ATP", "setting": "WT, 1 d + 0.75 mM Galactose", "value": 2677.06, "unit": "pmol/mio cells"},
      {"measurement": "CTP", "setting": "WT, 1 d + 0.75 mM Galactose", "value": 288.74, "unit": "pmol/mio cells"},
      {"measurement": "GDP", "setting": "WT, 1 d + 0.75 mM Galactose", "value": 215.25, "unit": "pmol/mio cells"},
      {"measurement": "GDP-Man", "setting": "WT, 1 d + 0.75 mM Galactose", "value": 97.79, "unit": "pmol/mio cells"},
      {"measurement": "GTP", "setting": "WT, 1 d + 0.75 mM Galactose", "value": 519.85, "unit": "pmol/mio cells"},
      {"measurement": "UDP", "setting": "WT, 1 d + 0.75 mM Galactose", "value": 164.12, "unit": "pmol/mio cells"},
      {"measurement": "UDP-Gal", "setting": "WT, 1 d + 0.75 mM Galactose", "value": 298.39, "unit": "pmol/mio cells"},
      {"measurement": "UDP-Glc", "setting": "WT, 1 d + 0.75 mM Galactose", "value": 313.93, "unit": "pmol/mio cells"},
      {"measurement": "UTP", "setting": "WT, 1 d + 0.75 mM Galactose", "value": 1283.20, "unit": "pmol/mio cells"},
      {"measurement": "cAMP", "setting": "WT, 1 d + 0.75 mM Galactose", "value": 70.82, "unit": "pmol/mio cells"},
      {"measurement": "ADP", "setting": "WT, 4 d 2 mM Galactose", "value": 800.89, "unit": "pmol/mio cells"},
      {"measurement": "AMP", "setting": "WT, 4 d 2 mM Galactose", "value": 43.70, "unit": "pmol/mio cells"},
      {"measurement": "ATP", "setting": "WT, 4 d 2 mM Galactose", "value": 4045.74, "unit": "pmol/mio cells"},
      {"measurement": "CTP", "setting": "WT, 4 d 2 mM Galactose", "value": 267.44, "unit": "pmol/mio cells"},
      {"measurement": "GDP", "setting": "WT, 4 d 2 mM Galactose", "value": 375.01, "unit": "pmol/mio cells"},
      {"measurement": "GDP-Man", "setting": "WT, 4 d 2 mM Galactose", "value": 179.79, "unit": "pmol/mio cells"},
      {"measurement": "GTP", "setting": "WT, 4 d 2 mM Galactose", "value": 706.71, "unit": "pmol/mio cells"},
      {"measurement": "UDP", "setting": "WT, 4 d 2 mM Galactose", "value": 209.11, "unit": "pmol/mio cells"},
      {"measurement": "UDP-Gal", "setting": "WT, 4 d 2 mM Galactose", "value": 227.46, "unit": "pmol/mio cells"},
      {"measurement": "UDP-Glc", "setting": "WT, 4 d 2 mM Galactose", "value": 272.66, "unit": "pmol/mio cells"},
      {"measurement": "UDP-GlcNAc", "setting": "WT, 4 d 2 mM Galactose", "value": 5.74, "unit": "pmol/mio cells"},
      {"measurement": "UTP", "setting": "WT, 4 d 2 mM Galactose", "value": 1538.99, "unit": "pmol/mio cells"},
      {"measurement": "cAMP", "setting": "WT, 4 d 2 mM Galactose", "value": 71.87, "unit": "pmol/mio cells"},
      {"measurement": "ADP", "setting": "WT, 4 d + 0.75 mM Galactose", "value": 670.35, "unit": "pmol/mio cells"},
      {"measurement": "AMP", "setting": "WT, 4 d + 0.75 mM Galactose", "value": 28.04, "unit": "pmol/mio cells"},
      {"measurement": "ATP", "setting": "WT, 4 d + 0.75 mM Galactose", "value": 4021.73, "unit": "pmol/mio cells"},
      {"measurement": "CTP", "setting": "WT, 4 d + 0.75 mM Galactose", "value": 254.91, "unit": "pmol/mio cells"},
      {"measurement": "GDP", "setting": "WT, 4 d + 0.75 mM Galactose", "value": 307.92, "unit": "pmol/mio cells"},
      {"measurement": "GDP-Man", "setting": "WT, 4 d + 0.75 mM Galactose", "value": 191.57, "unit": "pmol/mio cells"},
      {"measurement": "GTP", "setting": "WT, 4 d + 0.75 mM Galactose", "value": 691.97, "unit": "pmol/mio cells"},
      {"measurement": "UDP", "setting": "WT, 4 d + 0.75 mM Galactose", "value": 156.18, "unit": "pmol/mio cells"},
      {"measurement": "UDP-Gal", "setting": "WT, 4 d + 0.75 mM Galactose", "value": 219.26, "unit": "pmol/mio cells"},
      {"measurement": "UDP-Glc", "setting": "WT, 4 d + 0.75 mM Galactose", "value": 268.34, "unit": "pmol/mio cells"},
      {"measurement": "UTP", "setting": "WT, 4 d + 0.75 mM Galactose", "value": 1495.61, "unit": "pmol/mio cells"},
      {"measurement": "cAMP", "setting": "WT, 4 d + 0.75 mM Galactose", "value": 67.63, "unit": "pmol/mio cells"},
      {"measurement": "UDP-Glc and UDP-Gal levels", "setting": "control cells, increase on first day of D-gal", "value": "normalized at 4 days"},
      {"measurement": "Nucleotide sugar ratio UDP-Glc/UDP-Gal, mean", "setting": "controls, both with or without D-gal", "value": 1.2}
    ]}
  ]
}
